In patent US20120289492A1, “METHODS OF TREATING MITOCHONDRIAL DISORDERS USING METALLOPORPHYRINS” (priority 2009, published 2012):
“Also recorded” adds a separate entry of the source.

How the values were obtained:
[1] = tested on: B6D2F2 Sod2−/− mice; assay: Behavioral seizure evaluation and survival of Sod2−/− mice
Source text: The model utlizes cross-bred C57BL6XDBA2F2 (B6D2) mutant mice lacking manganese superoxide dismutase (MnSOD or Sod2), a critical mitochondrial antioxidant.
Chronic Video Monitoring and Seizure Scoring: Sod2−/− mice and wild type littermates aged P7-˜P21 are digitally recorded 8 hrs/day in a custom designed plexiglass cage using a Q-See QD14B video monitoring system connected to a recordable DVD. DVD recordings are saved and reviewed by a trained observer blind to genotype and/or treatment for scoring of seizure severity, duration, and frequency. Seizure severity will be rated using the following scale: 1=immobilization & staring, 2=head-nodding, occasional forelimb clonic and tonic activity, 3=continuous forelimb clonic and tonic activity, 4=generalized seizures with falling, running and jumping.
The mutant mice were monitored on a daily basis to get an accurate birth and death data. Pups were not culled or handled before P5 to avoid maternal rejection.
Metalloporphyrin (AEOL11207) administration B6D2F1 Sod2−/− mice and their wild-type littermates (control mice) were treated with AEOL11207 (5 mg/kg) or vehicle by subcutaneous (s.c.) injection daily starting at 5 days of age until death or being sacrificed. AEOL11207 was dissolved in dimethyl sulfoxide (DMSO) and diluted with sterilized phosphate buffered saline (PBS) to achieve the desired final concentration (1% DMSO). The control animals were injected with sterilized PBS containing 1% DMSO. The animals were divided into four different groups: 1) control mice +vehicle; 2) B6D2F1 Sod2−/− mice+vehicle; 3) control mice +AEOL11207; 4) B6D2F1 Sod2−/− mice +AEOL11207. The treated and untreated mice were sacrificed at 15-16 days old for pathology and biochemistry assays or until death for survival and seize behavioral evaluation.
During the weaning period (P15-P18) mice were recorded in the presence of their mothers, and individually thereafter. Video was digitally recorded (Panasonic DMR-ES 15) and stored on DVD-R′s for observation and quantification of seizure number, duration, frequency, and severity by an observer blind to treatments. Seizure severity was scored according to the following scale: 1=immobilization and staring, 2=head-nodding, shaking, 3=forelimb tonic/clonic activity, 4=continuous forelimb tonic/clonic activity with falling, running or jumping. Due to the presence of abnormal gait and posturing in Sod2^−/− mice, only spontaneous motor seizures with scores>3 were included for comparison between groups. The scoring and analysis was conducted by an investigator blinded to genotype and treatment.
Statistical analyses Survival analysis was performed using the Kaplan-Meier method. […] P values less than 0.05 were considered significant.

[2] = tested on: 1-methyl-4-phenyl-1,2,3,6-tetrahydropyridine (MPTP) neurotoxicity; conditions: oral administration; cited from earlier work
[3] = tested on: forebrain of Sod2−/− mice; assay: Mitochondrial oxidative stress and bioenergetic indices in brain of Sod2−/− mice; format: in vivo
Experimental: To determine whether AEOL11207 decreases mitochondrial dysfunction and corrects key bioenergetic parameters in Sod2−/− mice, activity was measured of the oxidant sensitive mitochondrial enzyme, aconitase and oxidant insensitive control, fumarase, ATP, 3-nitrotyrosine (3NT), a marker of oxidative damage to proteins, reduced coenzyme A (CoASH) which assesses the mitochondrial redox state and the activity of the sodium potassium ATPase (Na+-K+ ATPase). […] FIGS. 5A-5EC illustrate attenuation of aconitase inactivation (5A), ATP depletion (5B), 3NT formation ([…]), CoASH depletion (5D) and decreased Na+-K+ ATPase activity (5E) in Sod2−/− mice by AEOL11207 (5 mg/kg, s.c. beginning PND5, n=*p<0.05, #p<0.01).
Methods:3-nitrotyrosine (3-NT) measurement by HPLC 3-NT assay are performed with HPLC equipped electrochemical detector using methods as previously described in the literature. The potentials of the electrochemical detector are set at 180/240/350/500/600/670/810/830 mV. Analyte separation is conducted on a TOSOHAAS (Montgomeryville, Pa.) reverse-phase ODS 80-TM C-18 analytical column (4.6 mm×[…]; 5 µm particle size). A two-component gradient elution system was used with component A of the mobile phase composed of 50 mM sodium acetate pH 3.2, and component B composed of 50mM sodium acetate and 40% methanol. The following gradient elution profile was used: 0-25 min, 100% A; 25-35 min, linear ramp to 50% B; 35-40 min, isocratic 50% B; 40-45 min, linear ramp to 100% A; 45-50 min, isocratic 100% A at a flow rate of 0.6 ml/min. 3-NT was expressed as a ratio of 3-NT to tyrosine.
Measurement of AMP, ADP and ATP: The levels of AMP, ADP and ATP are quantified by HPLC-UV set at 258 nm following previous described. Analyte are separated by […], […] C-18 reversed-phase column. Mobile phase is composed of 50 mM KH2PO4, 10% methanol, 3 mM TBAS and adjusted to pH 6.0 and flow rate set at 0.8 ml/min.
Aconitase and fumarase activity assay: Aconitase and fumarase activity are measured in mitochondrial fraction which isolated as previously described. Briefly, brain tissues are homogenized with a Dounce tissue grinder (Wheaton, Millville, N.J.) in ice-cold mitochondrial isolation buffer (70 mM sucrose, 210 mM mannitol, 5 mM Tris HCl, 1 mM EDTA pH 7.4). After homogenization, the suspensions are centrifuged at 800 g for 10 minutes at 4° C., and the supernatants centrifuged at 17,000 g for 10 minutes at 4° C. The pellets are washed by mitochondrial isolation buffer and centrifuged at 17,000 g for 10 minutes at 4° C. again. Aconitase activity is measured spectrophotometrically following previous described by monitoring the formation of cis-aconitate from isocitrate at 240 nm in 50 mM Tris HCl, pH 7.4, containing 0.6 mM MnCl2 at 25° C. Fumarase activity is measured by monitoring the increase in absorbance at 240 nm at 25° C. in a 1 ml reaction mixture containing 30 mM potassium phosphate, pH 7.4, 0.1 mM L-malate.
Isolation mitochondrial fraction Mitochondria were isolated from the forebrain of mice according to the previously described methods (Liang & Patel, (2006) Free Radic Biol Med 40, 316-22). In brief, the forebrain was homogenized with a Dounce tissue grinder (Wheaton, Millville, N.J.) in mitochondrial isolation buffer (70 mM sucrose, 210 mM mannitol, 5 mM Tris HCl, 1 mM EDTA; pH 7.4). The suspensions centrifuged at 800 g 4° C. for 10 min. The supernatants were centrifuged at 13000 g 4° C. for 10 min., pellets washed with mitochondrial isolation buffer and centrifuged at 13000 g 4° C. for 10 min. to obtain crude mitochondrial fractions. The purity of mitochondrial fractions has been confined by immunoblot analysis of cytochrome c oxidase (COX) (EC1.9.3.1) subunit IV and lactate dehydrogenase (LDH) (EC 1.1.1.27) in mitochondrial and cytosolic fractions. There is no mitochondria contamination in cytosolic fraction and about 5-10% cytosol contamination in mitochondrial fraction (Liang & Patel, (2006) Free Radic Biol Med 40, 316-22). […]

[4] = Scavenging of reactive oxygen species in cell-free systems and isolated mitochondria; format: biochemical
[5] = tested on: paraquat (PQ2+)-induced cell injury; assay: Paraquat (PQ2+)-induced cell injury assay; format: cell-based; conditions: data not shown
[6] = Ames' test (mutagenicity); format: cell-based
Source text: Safety profile: A prototypical metalloporphyrin (AEOL10150; FIG. 1) has completed phase 1 trials in amyotrophic lateral sclerosis patients. Extensive safety studies of this compound have been completed in mice, monkeys and rats. […] Safety studies for the structurally related compound, AEOL11207 need to be completed once its efficacy is established in animal studies.

[7] = Sod2−/− mice, 5 mg/kg s.c. daily from P5, vs vehicle, 5 mg/kg
[8] = Sod2−/− mice, 5 mg/kg s.c. from PND5

For `COC(=O)c1c2nc(c(C(F)(F)F)c3ccc([n-]3)c(C(=O)OC)c3nc(c(C(F)(F)F)c4ccc1[n-]4)C=C3)C=C2.[Cl-].[Mn+3]` [AEOL11207], the “Sod2−/− mice surviving beyond 15 days old” value ([1]; 5 mg/kg daily, vehicle ~48%) was “all”, the “Sod2−/− mice exhibiting spontaneous tonic-clonic seizures” value ([1]; P15-P20, daily observation, all vehicle-treated mice) was 37% and the “frequency of spontaneous behavioral seizures” value [1, 7] was “significantly decreased; also recorded: decrease; also recorded: significantly attenuates”. For the same compound, the seizure severity [1, 7] was “but not seizure duration or severity; also recorded: no significant changes”, the “total number of spontaneous behavioral seizures” value [1, 7] was “decrease; also recorded: significantly attenuates” and the average lifespan ([1]; Sod2−/− mice, 5 mg/kg s.c. daily starting at 5 days of age, 5 mg/kg) was 20.33 ± 2.00 days. The average lifespan ([1]; Sod2−/− mice, 5 mg/kg s.c. daily starting at 5 days of age, listed as AEOL 11207, 5 mg/kg) was 20.383 ± 0.43 days, the average lifespan ([1]; Sod2−/− mice, daily treatment 2.5 mg/kg) was “no significant increase” and the “behavioral seizure characteristics / seizure parameters” value ([1]; Sod2−/− mice, s.c. from postnatal day 5) was “attenuates; also recorded: significantly attenuated; also recorded: ameliorates”. The “protection against MPTP neurotoxicity” value [2] was “protected”, the “decreased CoASH levels” value [3, 8] was “significantly attenuated” and the “increase in 3-nitrotyrosine (3NT) formation” value [3, 8] was “significantly attenuated”. For the same compound, the “attenuation of the depletion of ATP” value ([3]; forebrain homogenates of Sod2−/− mice, 15-16 days old) was 50%, the “decreased Na+-K+ ATPase activity” value ([3]; forebrain homogenates, Sod2−/− mice, 5 mg/kg s.c. from PND5, 5 mg/kg) was “significantly attenuated; also recorded: significantly restored” and the “decrease in ATP levels (ATP depletion)” value ([3]; forebrain, Sod2−/− mice, 5 mg/kg s.c. from PND5) was “significantly attenuated”. The “decrease in aconitase activity (aconitase inactivation)” value ([3]; mitochondrial fractions, Sod2−/− mice, 5 mg/kg s.c. from PND5) was “significantly attenuated”, the “scavenging of mitochondrial O2-, H2O2 and lipid peroxides” value [4] was “catalytically scavenges” and the protective range [5] was 30 to 100 nM. The “mutagenicity, Ames' test” value [6] was “negative”.
